Source: ChEMBL document CHEMBL1124516, “Synthesis of 2,3-diaziridinyl-1,4-naphthoquinone sulfonate derivatives as potential antineoplastic agents” (1989)

Legend:
Mus musculus [1] = assay: The ratio of the survival time of treated to control animals x 100 in mice bearing B16 Melanoma, when compound (100 mg/kg) was administered intraperitoneally; type: functional
Mus musculus [2] = assay: Average change in weight in mice bearing the L1210 Leukemia, when compound (20 mg/kg) was administered once daily beginning 24 hr after tumor implantation, for 6 consecutive days.; type: functional
L1210 [3] = assay: Percentage survival time of L1210 (murine leukemia) inoculated mice following 30 mg/kg i.p.; type: functional, Mus musculus; conditions: route intraperitoneal
L1210 [4] = assay: Percentage survival time of L1210 (murine leukemia) inoculated mice following 20 mg/kg i.p.; type: functional, Mus musculus; conditions: route intraperitoneal
Mus musculus [5] = assay: The ratio of the survival time of treated to control animals x 100 in mice bearing B16 Melanoma, when compound (50 mg/kg) was administered intraperitoneally; type: functional
Mus musculus [6] = assay: Survival of mice bearing B16 melanoma cells greater than 50 days when treated with a dose of 100 mg/Kg administered intraperitoneally; tested in 5 mice; type: functional
Mus musculus [7] = assay: Number of mice survived for a period of greater than 50 days when a dose of 20 mg/Kg is administered intraperitoneally; tested in 10 mice; type: functional
Mus musculus [8] = assay: Average change in weight in mice bearing the L1210 Leukemia, when compound(30 mg/kg) was administered once daily beginning 24 hr after tumor implantation, for 6 consecutive days.; type: functional
Mus musculus [9] = assay: Number of mice survived for a period of greater than 50 days when a dose of 25 mg/Kg is administered intraperitoneally; tested in 10 mice; type: functional
Mus musculus [10] = assay: Average change in weight in mice bearing the L1210 Leukemia, when compound (25 mg/kg) was administered once daily beginning 24 hr after tumor implantation, for 6 consecutive days.; type: functional
Mus musculus [11] = assay: Number of mice survived for a period of greater than 50 days when a dose of 30 mg/Kg is administered intraperitoneally; tested in 10 mice; type: functional
Mus musculus [12] = assay: Average change in weight in mice bearing the B16 Melanoma, when compound(150 mg/kg) was administered beginning 24 hr after tumor implantation, daily once for 6 consecutive days.; type: functional
Mus musculus [13] = assay: Average change in weight in mice bearing the B16 Melanoma, when compound(100 mg/kg) was administered beginning 24 hr after tumor implantation, daily once for 6 consecutive days.; type: functional
Mus musculus [14] = assay: Average change in weight in mice bearing the B16 Melanoma, when compound(50 mg/kg) was administered intraperitoneally beginning 24 hr after tumor implantation, daily once for 6 consecutive days.; type: functional
Mus musculus [15] = assay: Survival of mice bearing B16 melanoma cells greater than 50 days when treated with a dose of 150 mg/Kg administered intraperitoneally; tested in 5 mice; type: functional
Mus musculus [16] = assay: Survival of mice bearing B16 melanoma cells greater than 50 days when treated with a dose of 50 mg/Kg administered intraperitoneally; tested in 5 mice; type: functional
Mus musculus [17] = assay: The ratio of the survival time of treated to control animals x 100 in mice bearing B16 Melanoma, when compound (150 mg/kg) was administered intraperitoneally; type: functional
L1210 [18] = assay: Percentage survival time of L1210 (murine leukemia) inoculated mice following 25 mg/kg i.p.; type: functional, Mus musculus; conditions: route intraperitoneal
Mus musculus [19] = assay: Number of mice surviving for a period greater than 50 days when a dose of 30 mg/Kg is administered intraperitoneally; tested in 5 mice; type: functional
Mus musculus [20] = assay: Number of mice survived for a period greater than 50 days when a dose of 20 mg/Kg is administered intraperitoneally; tested in 5 mice; type: functional
L1210 [21] = assay: Number L1210 (murine leukemia) inoculated mice surviving for >50 days following 25 mg/kg i.p.; type: functional, Mus musculus; conditions: route intraperitoneal
Mus musculus [22] = assay: The ratio of the survival time of treated to control animals x 100 in mice bearing L1210 Leukemia, when compound (15 mg/kg) was administered intraperitoneally; type: functional
Mus musculus [23] = assay: The ratio of the survival time of treated to control animals x 100 in mice bearing L1210 leukemia, when compound (5 mg/kg) was administered intraperitoneally; type: functional
Mus musculus [24] = assay: Number of mice survived for a period of greater than 50 days when a dose of 5 mg/Kg is administered intraperitoneally; tested in 5 mice; type: functional
Mus musculus [25] = assay: The ratio of the survival time of treated to control animals x 100 in mice bearing L1210 Leukemia, when compound (10 mg/kg) was administered intraperitoneally; type: functional
Mus musculus [26] = assay: Number of mice survived for a period of greater than 50 days when a dose of 10 mg/kg is administered intraperitoneally; tested in 5 mice; type: functional; conditions: route intraperitoneal
Mus musculus [27] = assay: Average change in weight in mice bearing the L1210 Leukemia, when compound (15 mg/kg) was administered beginning 24 hr after tumor implantation, daily once for 6 consecutive days.; type: functional
Mus musculus [28] = assay: Average change in weight in mice bearing the L1210 Leukemia, when compound (5 mg/kg) was administered beginning 24 hr after tumor implantation, daily once for 6 consecutive days.; type: functional
Mus musculus [29] = assay: Average change in weight in mice bearing the L1210 Leukemia, when compound (10 mg/kg) was administered beginning 24 hr after tumor implantation, daily once for 6 consecutive days.; type: functional
Mus musculus [30] = assay: Number of mice survived for a period of greater than 50 days when a dose of 15 mg/kg is administered intraperitoneally; tested in 5 mice; type: functional; conditions: route intraperitoneal
Mus musculus [31] = assay: The ratio of the survival time of treated to control animals x 100 in mice bearing L1210 leukemia, when compound (3 mg/kg) was administered intraperitoneally; type: functional
Mus musculus [32] = assay: The ratio of the survival time of treated to control animals x 100 in mice bearing B16 Melanoma, when compound (3 mg/kg) was administered intraperitoneally; type: functional
Mus musculus [33] = assay: Number of mice survived for a period of greater than 50 days when a dose of 3 mg/Kg is administered intraperitoneally; tested in 5 mice; type: functional
Mus musculus [34] = assay: Survival of mice bearing B16 melanoma cells greater than 50 days when treated with a dose of 3 mg/Kg administered intraperitoneally; tested in 5 mice; type: functional
Mus musculus [35] = assay: Average change in weight in mice bearing the B16 Melanoma, when compound(3 mg/kg) was administered beginning 24 hr after tumor implantation, daily once for 6 consecutive days.; type: functional
Mus musculus [36] = assay: Average change in weight in mice bearing the L1210 Leukemia, when compound (3 mg/kg) was administered beginning 24 hr after tumor implantation, daily once for 6 consecutive days.; type: functional

Row | Structure (SMILES) | Activity (Mus musculus [1]) | Average change in body weight (Mus musculus [2]) [%] | Activity (L1210 [3]) | Activity (L1210 [4]) | Activity (Mus musculus [5]) | Survivals (Mus musculus [6]) | Average change in body weight (Mus musculus [8]) [%] | Average body weight change (Mus musculus [10]) [%] | Average change in body weight (Mus musculus [12]) [%] | Average change in body weight (Mus musculus [13]) [%] | Average body weight change (Mus musculus [14]) [%] | Survivals (Mus musculus [15]) | Survivals (Mus musculus [16]) | Activity (Mus musculus [17]) | Activity (L1210 [18]) | Survivals (Mus musculus [19]) | Survivals (Mus musculus [20]) | Survivals (L1210 [21]) | also measured
1 | Cc1ccc(S(=O)(=O)Oc2cccc3c2C(=O)C(N2CC2)=C(N2CC2)C3=O)cc1 | 153 | -2.2 | 248 | 155 | 144 | 0 | -7.4 | -3.5 | -9.8 | -1.9 | 4.5 | 0 | 0 | 141 | 490 |  |  |  | Survivals (Mus musculus [7]): 7; Survivals (Mus musculus [9]): 9; Survivals (Mus musculus [11]): 7
2 | O=C1C(N2CC2)=C(N2CC2)C(=O)c2c(OS(=O)(=O)c3ccc(F)cc3)cccc21 | 182 | 0.3 |  |  | 159 | 0 | -3.4 | -5.7 | -20.3 | -14.3 | -5.2 | 0 | 0 | 177 | 200 | 5 | 5 | 4 | 
3 | O=C1C(N2CC2)=C(N2CC2)C(=O)c2c(OS(=O)(=O)c3ccc(Br)cc3)cccc21 | 153 | 12.2 | 179 | 214 | 143 |  | 8.3 | 11.2 | 0.7 | 2.5 | 1.1 |  |  | 151 | 165 | 0 | 0 | 0 | 
4 | O=C1C(N2CC2)=CC(=O)c2c(O)cccc21 |  |  |  |  |  |  |  |  |  |  |  |  |  |  |  |  |  |  | Activity (Mus musculus [22]): 90; Activity (Mus musculus [23]): 231; Survival (Mus musculus [24]): 0; Activity (Mus musculus [25]): 94; Survival (Mus musculus [26]): 0; Average weight (Mus musculus [27]): 2.1%; Average weight (Mus musculus [28]): 12.7%; Average weight (Mus musculus [29]): 5.1%; Survival (Mus musculus [30]): 0
5 | O=C1C(N2CC2)=C(N2CC2)C(=O)c2c(OS(=O)(=O)c3ccccc3)cccc21 | 180 | -6.2 | 359 |  | 156 | 0 | -7 | -8.3 | -13.5 | -12.3 | -1.3 | 0 | 0 | 148 |  | 4 | 5 | 5 | 
6 | O=C1C(N2CC2)=C(N2CC2)C(=O)c2c(OS(=O)(=O)c3ccc(I)cc3)cccc21 | 138 | 14.6 | 146 | 127 | 132 |  | 15.8 | 11.1 | -4.1 | 0.6 | 4.1 |  |  | 141 | 146 | 0 | 0 | 0 | 
7 | O=C1C(N2CC2)=C(N2CC2)C(=O)c2c(OS(=O)(=O)c3ccc(Cl)cc3)cccc21 | 153 | 4.2 | 167 | 161 | 143 | 0 | -2.7 | 1.7 | -3.2 | -2.5 | 1.1 | 0 | 0 | 178 | 200 | 3 | 0 | 0 | 
8 | CCOC(=O)NC1=C(N2CC2)C(=O)C(NC(=O)OCC)=C(N2CC2)C1=O [DIAZIQUONE] |  |  |  |  |  |  |  |  |  |  |  |  |  |  |  |  |  |  | Activity (Mus musculus [31]): 231; Activity (Mus musculus [32]): 147; Survivals (Mus musculus [33]): 0; Survivals (Mus musculus [34]): 0; Average weight (Mus musculus [35]): -13.8%; Average weight (Mus musculus [36]): -11.7%
